Experimental data from ChEMBL document CHEMBL4177730, “Rational modification of semaxanib and sunitinib for developing a tumor growth inhibitor targeting ATP binding site of tyrosine kinase” (2018).
Activity calls are given as the source filed them.

How the values were obtained:
Format in all cases: functional, cell-based
EKVX = test: Growth inhibition of human EKVX cells at 10 uM after 48 hrs by sulforhodamine B assay
U-251 = test: Growth inhibition of human U251 cells at 10 uM after 48 hrs by sulforhodamine B assay
LOX IMVI = test: Growth inhibition of human LOXIMVI cells at 10 uM after 48 hrs by sulforhodamine B assay
RPMI-8226 = test: Growth inhibition of human RPMI8226 cells at 10 uM after 48 hrs by sulforhodamine B assay
HT-29 = test: Growth inhibition of human HT-29 cells at 10 uM after 48 hrs by sulforhodamine B assay
Hs-578T = test: Growth inhibition of human Hs 578T cells at 10 uM after 48 hrs by sulforhodamine B assay
786-0 = test: Growth inhibition of human 786-0 cells at 10 uM after 48 hrs by sulforhodamine B assay
SF-268 = test: Growth inhibition of human SF268 cells at 10 uM after 48 hrs by sulforhodamine B assay
OVCAR-8 = test: Growth inhibition of human OVCAR8 cells at 10 uM after 48 hrs by sulforhodamine B assay
NCI-H522 = test: Growth inhibition of human NCI-H522 cells at 10 uM after 48 hrs by sulforhodamine B assay
MDA-MB-231 = test: Growth inhibition of human MDA-MB-231 cells at 10 uM after 48 hrs by sulforhodamine B assay
COLO 205 = test: Growth inhibition of human COLO205 cells at 10 uM after 48 hrs by sulforhodamine B assay
SN12C = test: Growth inhibition of human SN12C cells at 10 uM after 48 hrs by sulforhodamine B assay
CAKI-1 = test: Growth inhibition of human CAKI-1 cells at 10 uM after 48 hrs by sulforhodamine B assay
NCI/ADR-RES = test: Growth inhibition of human NCI-ADR-RES cells at 10 uM after 48 hrs by sulforhodamine B assay
SNB-19 = test: Growth inhibition of human SNB19 cells at 10 uM after 48 hrs by sulforhodamine B assay
MDA-MB-468 = test: Growth inhibition of human MDA-MB-468 cells at 10 uM after 48 hrs by sulforhodamine B assay
SR = test: Growth inhibition of human SR cells at 10 uM after 48 hrs by sulforhodamine B assay
NCI-H23 = test: Growth inhibition of human NCI-H23 cells at 10 uM after 48 hrs by sulforhodamine B assay
M14 = test: Growth inhibition of human M14 cells at 10 uM after 48 hrs by sulforhodamine B assay
MDA-MB-435 = test: Growth inhibition of human MDA-MB-435 cells at 10 uM after 48 hrs by sulforhodamine B assay
HCC 2998 = test: Growth inhibition of human HCC2998 cells at 10 uM after 48 hrs by sulforhodamine B assay
IGROV-1 = test: Growth inhibition of human IGROV1 cells at 10 uM after 48 hrs by sulforhodamine B assay
PC-3 = test: Growth inhibition of human PC3 cells at 10 uM after 48 hrs by sulforhodamine B assay
TK-10 = test: Growth inhibition of human TK10 cells at 10 uM after 48 hrs by sulforhodamine B assay
HCT-15 = test: Growth inhibition of human HCT15 cells at 10 uM after 48 hrs by sulforhodamine B assay
NCI-H226 = test: Growth inhibition of human NCI-H226 cells at 10 uM after 48 hrs by sulforhodamine B assay
KM12 = test: Growth inhibition of human KM12 cells at 10 uM after 48 hrs by sulforhodamine B assay
A549 = test: Growth inhibition of human A549/ATCC cells at 10 uM after 48 hrs by sulforhodamine B assay
K562 = test: Growth inhibition of human K562 cells at 10 uM after 48 hrs by sulforhodamine B assay
ACHN = test: Growth inhibition of human ACHN cells at 10 uM after 48 hrs by sulforhodamine B assay
SK-MEL-5 = test: Growth inhibition of human SK-MEL-5 cells at 10 uM after 48 hrs by sulforhodamine B assay
A498 = test: Growth inhibition of human A498 cells at 10 uM after 48 hrs by sulforhodamine B assay
NCI-H322M = test: Growth inhibition of human NCI-H322M cells at 10 uM after 48 hrs by sulforhodamine B assay
HOP-92 = test: Growth inhibition of human HOP92 cells at 10 uM after 48 hrs by sulforhodamine B assay
CCRF-CEM = test: Growth inhibition of human CCRF-CEM cells at 10 uM after 48 hrs by sulforhodamine B assay
UACC-62 = test: Growth inhibition of human UACC62 cells at 10 uM after 48 hrs by sulforhodamine B assay
HCT-116 = test: Growth inhibition of human HCT116 cells at 10 uM after 48 hrs by sulforhodamine B assay
SF-539 = test: Growth inhibition of human SF539 cells at 10 uM after 48 hrs by sulforhodamine B assay
SK-MEL-28 = test: Growth inhibition of human SK-MEL-28 cells at 10 uM after 48 hrs by sulforhodamine B assay
T47D = test: Growth inhibition of human T47D cells at 10 uM after 48 hrs by sulforhodamine B assay
UO-31 = test: Growth inhibition of human UO31 cells at 10 uM after 48 hrs by sulforhodamine B assay
SK-MEL-2 = test: Growth inhibition of human SK-MEL-2 cells at 10 uM after 48 hrs by sulforhodamine B assay
OVCAR-5 = test: Growth inhibition of human OVCAR5 cells at 10 uM after 48 hrs by sulforhodamine B assay
BT-549 = test: Growth inhibition of human BT549 cells at 10 uM after 48 hrs by sulforhodamine B assay
DU-145 = test: Growth inhibition of human DU145 cells at 10 uM after 48 hrs by sulforhodamine B assay
SW-620 = test: Growth inhibition of human SW620 cells at 10 uM after 48 hrs by sulforhodamine B assay
Malme-3M = test: Growth inhibition of human MALME-3M cells at 10 uM after 48 hrs by sulforhodamine B assay
OVCAR-3 = test: Growth inhibition of human OVCAR3 cells at 10 uM after 48 hrs by sulforhodamine B assay
SK-OV-3 = test: Growth inhibition of human SKOV3 cells at 10 uM after 48 hrs by sulforhodamine B assay
SNB-75 = test: Growth inhibition of human SNB75 cells at 10 uM after 48 hrs by sulforhodamine B assay
NCI-H460 = test: Growth inhibition of human NCI-H460 cells at 10 uM after 48 hrs by sulforhodamine B assay
MCF7 = test: Growth inhibition of human MCF7 cells at 10 uM after 48 hrs by sulforhodamine B assay
SF-295 = test: Growth inhibition of human SF295 cells at 10 uM after 48 hrs by sulforhodamine B assay
HOP-62 = test: Growth inhibition of human HOP62 cells at 10 uM after 48 hrs by sulforhodamine B assay
RXF 393 = test: Growth inhibition of human RXF393 cells at 10 uM after 48 hrs by sulforhodamine B assay
MOLT-4 = test: Growth inhibition of human MOLT4 cells at 10 uM after 48 hrs by sulforhodamine B assay
OVCAR-4 = test: Growth inhibition of human OVCAR4 cells at 10 uM after 48 hrs by sulforhodamine B assay
HL-60(TB) = test: Growth inhibition of human HL-60(TB) cells at 10 uM after 48 hrs by sulforhodamine B assay

Measured: growth inhibition (GI)

O=C1/C(=C\c2cccn2C(=O)c2ccc(Cl)cc2)c2ccccc2N1c1c(Cl)cccc1Cl
inactive: all assays above
